Data as given in PMC5054527, “Mechanism of high affinity inhibition of the human urate transporter URAT1” (Scientific Reports, 2016).
Residue numbers refer to the chain shown, from its start. Read-outs that look alike come from different tables or passages of the source.

Experiments:
hURAT1 = conditions: cited from earlier work
r-h TM7 URAT1 chimera = target: T1, r-h TM7 URAT1 chimera (Rattus norvegicus, UniProt Q3ZAV1, F351C/M354T/Y365F); test: URAT1 uric acid transport activity assay; type: cell-based, human/rat
T1 construct: expressed in transfected cells; host or cells: HEK-293T
T1 sequence (Q3ZAV1 1-553 F351C/M354T/Y365F): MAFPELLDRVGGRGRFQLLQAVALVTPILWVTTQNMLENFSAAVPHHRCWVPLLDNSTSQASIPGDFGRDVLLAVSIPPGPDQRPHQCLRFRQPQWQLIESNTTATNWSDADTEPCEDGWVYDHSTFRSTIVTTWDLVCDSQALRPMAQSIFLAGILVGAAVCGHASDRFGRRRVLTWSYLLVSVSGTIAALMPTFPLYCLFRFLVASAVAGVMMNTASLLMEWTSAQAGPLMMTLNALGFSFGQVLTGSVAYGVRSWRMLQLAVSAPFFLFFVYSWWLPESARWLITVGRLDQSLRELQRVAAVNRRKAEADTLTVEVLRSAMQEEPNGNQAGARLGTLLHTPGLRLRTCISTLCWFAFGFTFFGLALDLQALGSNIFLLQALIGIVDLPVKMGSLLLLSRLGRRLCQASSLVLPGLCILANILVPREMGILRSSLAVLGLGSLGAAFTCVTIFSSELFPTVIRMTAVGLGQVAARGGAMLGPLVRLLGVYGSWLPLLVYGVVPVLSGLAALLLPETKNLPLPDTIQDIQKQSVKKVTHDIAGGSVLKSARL
Source text: (§1) hURAT1 (GenBank BC053348.1) and rURAT1 (NCBI NM_001034943.1) genes were purchased from Origene Technologies, Inc. and subcloned into pCMV6/neo using NotI, creating pCMV6/neo-hURAT1 and pCMV6/neo-rURAT1. Mutants were produced by polymerase chain reaction (PCR) or site-directed mutagenesis using the QuikChange Lightning Multi Site-Directed Mutagenesis Kit (Agilent Technologies). […] Detailed methods are provided in Supplementary Methods, and primers are listed in Supplementary Table 1. […] Residues in rURAT1 and hOAT1 that correspond to the residues in hURAT1 were identified from aligned protein sequences (Supplementary Fig. 1)[50].
(§2) DNA (10 μg) was mixed with 30 μl of DreamFect Gold (Boca Scientific) in 2 ml OptiMem (Life Technologies). After 20 minutes, 18 ml of media containing 2 × 10^7 cells in suspension was added and mixed, and 200 μl per well were plated onto white clear-bottomed poly-D-lysine coated 96-well plates (BD Biosciences). The cells were assayed the following day.
(§3) Compounds were serially diluted into assay buffer and added to the cells for 5 minutes prior to addition of radiolabelled uric acid substrate. URAT1-expressing cells were incubated with 100 μM ^14C-uric acid for 10 minutes. […] Each treatment was measured in triplicate.
(§4) Unlabelled uric acid was prepared at a 20 mM stock just prior to use in a solution containing 20 mM dibasic potassium phosphate and 20 mM potassium hydroxide.
(§5) Nonlinear regression analyses using GraphPad Prism software were used to calculate the potency of URAT1 inhibitors (IC50 values) from log (inhibitor) versus response - variable slope (four parameters) equations. Statistical significance was assessed using Student’s unpaired t-tests.

r-h TM1-N URAT1 chimera = target: T2, r-h TM1-N URAT1 chimera (Rattus norvegicus, UniProt Q3ZAV1, A21T/L18V/T26V/V22M/V25M); test: URAT1 uric acid transport activity assay; type: cell-based, human/rat
T2 sequence (Q3ZAV1 1-553 L18V/A21T/V22M/V25M/T26V): T1 sequence (Q3ZAV1 1-553 F351C/M354T/Y365F) with L18V, A21T, V22M, V25M, T26V, C351F, T354M, F365Y
Source text: as §1, §2, §3, §4, §5

r-h TM11 URAT1 chimera = target: T3, r-h TM11 URAT1 chimera (Rattus norvegicus, UniProt Q3ZAV1, M481I/V474M); test: URAT1 uric acid transport activity assay; type: cell-based, human/rat
T3 sequence (Q3ZAV1 1-553 V474M/M481I): T1 sequence (Q3ZAV1 1-553 F351C/M354T/Y365F) with C351F, T354M, F365Y, V474M, M481I
Source text: as §1, §2, §3, §4, §5

Question: For `O=c1[nH]c(=O)c2[nH]c(=O)[nH]c2[nH]1` [uric acid], which Km (hURAT1; read-out: Km for the substrate urate) is on record?
Answer: 371 µM

Question: Which results are given for `CCc1oc2ccccc2c1C(=O)c1cc(Br)c(O)c(Br)c1` [benzbromarone]?
Answer: IC50 (r-h TM7 URAT1 chimera): 5.7 ± 0.25 µM; IC50 (r-h TM1-N URAT1 chimera): 16 ± 0.76 µM; IC50 (r-h TM11 URAT1 chimera): 12 ± 0.48 µM; IC50 (hURAT1): […]

Question: For `O=C(O)CSc1nnc(Br)n1-c1ccc(C2CC2)c2ccccc12` [lesinurad, 2-((5-bromo-4-(4-cyclopropylnaphthalen-1-yl)-4H-1,2,4-triazol-3-yl)thio)acetic acid], which IC50 (r-h TM7 URAT1 chimera; r-h TM7, MES pH 5.5, 100 μM 14C-uric acid, read-out: IC50 (uric acid transport)) is on record?
Answer: 6.9 ± 0.99 µM

Question: And the IC50 (r-h TM1-N URAT1 chimera; r-h TM1-N, MES pH 5.5, 100 μM 14C-uric acid, read-out: IC50 (uric acid transport))?
Answer: 40 ± 7 µM

Question: And the IC50 (r-h TM11 URAT1 chimera; r-h TM11, MES pH 5.5, 100 μM 14C-uric acid, read-out: IC50 (uric acid transport))?
Answer: 62 ± 3.6 µM

Question: Which results are given for `O=C1C(CC[S+]([O-])c2ccccc2)C(=O)N(c2ccccc2)N1c1ccccc1` (centres unmarked) [sulfinpyrazone]?
Answer: IC50 (r-h TM7 URAT1 chimera; r-h TM7, HEPES pH 7.3, 100 μM 14C-uric acid, read-out: IC50 (uric acid transport)): 243 ± 22 µM; IC50 (r-h TM1-N URAT1 chimera; r-h TM1-N, HEPES pH 7.3, 100 μM 14C-uric acid, read-out: IC50 (uric acid transport)): 12 ± 2.6 µM; IC50 (r-h TM11 URAT1 chimera; r-h TM11, HEPES pH 7.3, 100 μM 14C-uric acid, read-out: IC50 (uric acid transport)): 342 ± 32 µM
